Test results reported in patent US20080221134A1, “8-ALKYNYLXANTHINES AND DERIVATIVES” (priority 2006, published 2008).
Where two headings read alike, the source gives them in different places.

Experiments:
[1] = target: T1, A2A-adenosine receptor human recombinant (Homo sapiens, UniProt P29274); experiment: Radioligand binding assay 1, human recombinant A2A adenosine receptor
T1 construct: expressed in transfected cells
Experimental: (§1) Rat brain preparations were used for A1- and A2A adenosine receptor (AR) and human recombinant cell samples for A1-, A2A- and A3 adenosine receptor radioligand binding studies. Affinity and selectivity was tested in displacement experiments with following radioligands: [^3H]CCPA for A1-adenosine receptors, [^3H]MSX-2 for A2A-receptors and [^3H]PSB-11 for A3-receptors. Results of these experiments are depicted in table 2b (human data) and table 2a (rat data). Radioligand binding test systems are e.g. generally described by Muller et al., Curr. Pharm. Des., 1996, 2, 501 and Weyler et al., ChemMedChem 2006, 1, 891 and references cited therein) These documents are incorporated herein by reference.

[2] = target: T2, A1-adenosine receptor human recombinant (Homo sapiens, UniProt P30542); experiment: Radioligand binding assay 1, human recombinant A1 adenosine receptor; details: [3H]CCPA
T2 construct: expressed in transfected cells
T2 sequence (P30542 1-326): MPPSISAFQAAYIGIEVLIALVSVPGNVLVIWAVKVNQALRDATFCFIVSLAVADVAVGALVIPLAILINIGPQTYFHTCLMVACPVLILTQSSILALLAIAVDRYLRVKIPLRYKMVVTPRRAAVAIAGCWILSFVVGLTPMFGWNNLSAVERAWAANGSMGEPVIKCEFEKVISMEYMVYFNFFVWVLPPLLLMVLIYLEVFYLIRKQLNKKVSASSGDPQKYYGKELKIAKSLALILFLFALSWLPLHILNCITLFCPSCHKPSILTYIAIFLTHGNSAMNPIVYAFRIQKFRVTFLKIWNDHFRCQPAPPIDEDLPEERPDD
Experimental: as §1

[3] = target: T3, Rat A2A AR (Rattus norvegicus, UniProt P30543); experiment: Radioligand binding assay 1, rat A2A adenosine receptor; details: rat striatum, [3H]MSX-2
T3 construct: A2A adenosine receptors from rat striatum; from tissue; host or cells: rat striatum
T3 sequence (P30543 whole entry): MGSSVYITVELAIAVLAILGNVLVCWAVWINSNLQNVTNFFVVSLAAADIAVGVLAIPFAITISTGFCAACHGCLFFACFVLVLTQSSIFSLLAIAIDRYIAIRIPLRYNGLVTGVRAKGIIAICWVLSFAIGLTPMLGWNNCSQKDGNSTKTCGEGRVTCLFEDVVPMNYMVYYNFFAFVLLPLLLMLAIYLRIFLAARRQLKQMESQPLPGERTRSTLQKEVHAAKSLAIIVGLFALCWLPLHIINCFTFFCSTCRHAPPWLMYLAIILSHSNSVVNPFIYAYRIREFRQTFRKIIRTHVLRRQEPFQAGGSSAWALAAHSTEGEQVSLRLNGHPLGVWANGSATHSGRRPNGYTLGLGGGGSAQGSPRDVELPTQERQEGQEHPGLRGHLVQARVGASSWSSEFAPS
Experimental: as §1

[4] = target: T4, Rat A1 AR (Rattus norvegicus, UniProt P25099); experiment: Radioligand binding assay 1, rat A1 adenosine receptor; details: rat cortex, [3H]CCPA
T4 construct: Rat brain preparations were used for A1- and A2A adenosine receptor (AR); from tissue; host or cells: rat cortex
T4 sequence (P25099 1-326): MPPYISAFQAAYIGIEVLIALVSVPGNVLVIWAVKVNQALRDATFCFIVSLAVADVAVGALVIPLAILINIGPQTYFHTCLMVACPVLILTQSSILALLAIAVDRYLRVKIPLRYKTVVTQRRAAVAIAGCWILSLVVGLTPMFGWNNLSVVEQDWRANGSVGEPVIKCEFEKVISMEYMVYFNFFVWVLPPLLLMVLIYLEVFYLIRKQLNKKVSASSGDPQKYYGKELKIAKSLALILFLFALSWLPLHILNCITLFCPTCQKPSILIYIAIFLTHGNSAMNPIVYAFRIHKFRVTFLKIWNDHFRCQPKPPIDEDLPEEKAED
Experimental: as §1

[5] = human recombinant, [3H]MSX-2, read-out: A2A-adenosine receptor human recombinant [3H] MSX-2 Ki

T1 sequence (P29274 whole entry): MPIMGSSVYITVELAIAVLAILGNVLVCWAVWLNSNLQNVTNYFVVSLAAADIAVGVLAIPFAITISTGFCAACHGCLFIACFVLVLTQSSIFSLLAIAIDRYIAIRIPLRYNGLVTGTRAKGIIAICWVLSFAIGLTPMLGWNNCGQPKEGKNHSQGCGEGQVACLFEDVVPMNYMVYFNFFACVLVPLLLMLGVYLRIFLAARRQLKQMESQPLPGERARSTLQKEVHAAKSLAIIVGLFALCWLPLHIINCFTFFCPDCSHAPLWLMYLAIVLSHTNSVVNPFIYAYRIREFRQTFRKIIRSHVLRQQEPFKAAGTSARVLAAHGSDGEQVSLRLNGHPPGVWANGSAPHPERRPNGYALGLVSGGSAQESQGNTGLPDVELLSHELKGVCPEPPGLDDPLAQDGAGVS

SMILES | Ki [1, 5] [nM] | Ki [2] [nM] | Ki ([1]; no full inhibition curve due to limited water-solubility, read-out: A2A-adenosine receptor human recombinant [3H] MSX-2 Ki, calculated by extrapolation) [nM] | Ki [3] [nM] | Ki [4] [nM]
C#CCn1c(=O)c2c(nc(C#Cc3cccc(OC)c3)n2C)n(CCCO)c1=O [drawing 564] | 5.5 ± 1.4 | > 3000 |  |  | 
C#CCn1c(=O)c2c(nc(C#Cc3ccc(F)c(OC)c3)n2C)n(CC)c1=O [drawing 588] | 100 ± 28 | > 1000 |  |  | 
C#CCn1c(=O)c2c(nc(C#Cc3ccc(OC)c(OC)c3)n2C)n(CCC#N)c1=O [drawing 577] | 84.3 ± 31 | > 1000 |  |  | 
C#CCn1c(=O)c2c(nc(C#Cc3cccc(C)c3)n2C)n(C)c1=O [drawing 555] | 225 ± 52 | > 10000 |  |  | 
C#CCn1c(=O)c2c(nc(C#Cc3cccc(OC)c3)n2C)n(CC(O)CO)c1=O (centres unmarked) [drawing 569] | 175 ± 44 | > 3000 |  |  | 
C#CCn1c(=O)c2c(nc(C#Cc3ccc(OC)c(OC)c3)n2C)n(Cc2ccco2)c1=O [drawing 579] | 13.9 ± 0.8 | > 1000 |  |  | 
C#CCn1c(=O)c2c(nc(C#Cc3cccc(OC)c3)n2C)n(CCN(C)C)c1=O [drawing 594] | 569 ± 10.7 |  |  |  | 
C#CCn1c(=O)c2c(nc(C#Cc3ccc(OC)c(OC)c3)n2C)n(CC(O)CO)c1=O (centres unmarked) [drawing 595] | 62.7 ± 10.7 | > 1000 |  |  | 
C#CCn1c(=O)c2c(nc(C#Cc3ccc(Cl)c(Cl)c3)n2C)n(CC)c1=O [drawing 597] | 738 ± 146 | > 1000 |  |  | 
C#CCn1c(=O)c2c(nc(C#Cc3ccc(OC)c(OC)c3)n2C)n(CC2CC2)c1=O [drawing 590] | 56.3 ± 26.4 | > 1000 |  |  | 
C#CCn1c(=O)c2c(nc(C#Cc3cccc(OCc4ccoc4)c3)n2C)n(C)c1=O [drawing 562] | < 10 | > 1000 |  |  | 
C#CCn1c(=O)c2c(nc(C#Cc3ccc(OC)c(OC)c3)n2C)n(C(C)C(C)=O)c1=O (centres unmarked) [drawing 591] | 54 |  |  |  | 
C#CCn1c(=O)c2c(nc(C#Cc3cccc(OCCN(C)C)c3)n2C)n(C)c1=O [drawing 560] | 90.3 ± 13.7 | > 1000 |  |  | 
C#CCn1c(=O)c2c(nc(C#Cc3cccc(Cl)c3)n2C)n(C)c1=O [drawing 556] | 423 ± 28 | > 10000 |  |  | 
C#CCn1c(=O)c2c(nc(C#Cc3ccc(OC)c(OC)c3)n2C)n(CCF)c1=O [drawing 587] | 30.8 ± 4.9 | > 1000 |  |  | 
C#CCn1c(=O)c2c(nc(C#Cc3ccc4c(c3)OCO4)n2C)n(C)c1=O [drawing 561] | 52.3 ± 13.4 |  |  |  | 
C#CCn1c(=O)c2c(nc(C#Cc3cccc(C)c3)n2C)n(CC)c1=O [drawing 566] | 89.7 ± 16.1 | > 3000 |  |  | 
C#CCn1c(=O)c2c(nc(C#Cc3ccccc3)n2C)n(C)c1=O [drawing 552] |  |  | 314 ± 71 |  | 
C#CCn1c(=O)c2c(nc(C#Cc3ccc(OC)c(OC)c3)n2C)n(CCCOP(=O)(O)O)c1=O [drawing 570] | 50.7 ± 21.2 |  |  |  | 
C#CCn1c(=O)c2c(nc(C#Cc3cccc(OC)c3)n2C)n(CCO)c1=O [drawing 572] | 165 ± 14 |  |  |  | 

SMILES | Ki [1, 5] [nM] | Ki [2] [nM] | Ki ([1]; no full inhibition curve due to limited water-solubility, read-out: A2A-adenosine receptor human recombinant [3H] MSX-2 Ki, calculated by extrapolation) [nM] | Ki [3] [nM] | Ki [4] [nM]
C#CCn1c(=O)c2c(nc(C#Cc3cccc(OC)c3)n2C)n(CC=C)c1=O [drawing 571] | 35.6 ± 10.9 |  |  |  | 
C#CCn1c(=O)c2c(nc(C#Cc3ccc(OC)c(OC)c3)n2C)n(CCC2CO2)c1=O (centres unmarked) [drawing 580] | 96.3 ± 3.1 |  |  |  | 
C#CCn1c(=O)c2c(nc(C#Cc3cccc(OCCCO)c3)n2C)n(C)c1=O [drawing 596] | 299 ± 72 |  |  |  | 
C#CCn1c(=O)c2c(nc(C#Cc3ccc(OC)c(OC)c3)n2C)n(CC(C)=O)c1=O [drawing 592] | 273 |  |  |  | 
C#CCn1c(=O)c2c(nc(C#Cc3cccc(OCc4ccoc4)c3)n2C)n(C)c1=O [drawing 479] |  |  |  | 66.4 ± 19 | > 1000
C#CCn1c(=O)c2c(nc(C#Cc3ccc(OCC)c(OCC)c3)n2C)n(C)c1=O |  |  |  | 951 ± 224 | > 1000
C#CCn1c(=O)c2c(nc(C#Cc3ccc(OC)c(OC)c3)n2C)n(C[C@H](C)CO)c1=O |  |  |  | 1.83 ± 0.38 | 146 ± 46
C#CCn1c(=O)c2c(nc(C#Cc3ccc(Cl)c(Cl)c3)n2C)n(CC)c1=O [drawing 550] |  |  |  | 132 ± 96 | > 1000
C#CCn1c(=O)c2c(nc(C#Cc3ccc(OC)c(OC)c3)n2C)n(Cc2ccsc2)c1=O |  |  |  | 28 ± 4.2 | > 1000
C#CCn1c(=O)c2c(nc(C#Cc3cccc(OCCOC)c3)n2C)n(C)c1=O [drawing 471] |  |  |  | 219 ± 52 | ≥ 10000
C#CCn1c(=O)c2c(nc(C#Cc3ccsc3)n2C)n(CC)c1=O [drawing 599] | 82.5 |  |  |  | 
C#CCn1c(=O)c2c(nc(C#Cc3ccc(OC)c(F)c3)n2C)n(C)c1=O |  |  |  | 194 ± 39 | > 1000
C#CCn1c(=O)c2c(nc(C#Cc3cncn3C)n2C)n(CC)c1=O [drawing 600] | 82.1 ± 26 |  |  |  | 
C#CCn1c(=O)c2c(nc(C#Cc3ccc(OC)c(OC)c3)n2C)n(CC(=C)C)c1=O |  |  |  | 28.6 ± 9.7 | > 1000
C#CCn1c(=O)c2c(nc(C#Cc3ccc(OC)c(OC)c3)n2C)n(CCC(=O)CC)c1=O |  |  |  | 103 ± 15 | 111 ± 26
C#CCn1c(=O)c2c(nc(C#Cc3ccc(OC)c(OC)c3)n2C)n(CCOC)c1=O [drawing 498] |  |  |  | 45.9 ± 13.5 | > 1000
C#CCn1c(=O)c2c(nc(C#Cc3ccc(OC)c(OC)c3)n2C)n(CCCOC)c1=O [drawing 506] |  |  |  | 44 ± 6.2 | > 1000
C#CCn1c(=O)c2c(nc(C#Cc3cccc(C)c3)n2C)n(CC)c1=O [drawing 486] |  |  |  | 76.3 ± 17.1 | > 10000
C#CCn1c(=O)c2c(nc(C#Cc3cccc(O)c3)n2C)n(C)c1=O [drawing 475] |  |  |  | 173 ± 35 | 425 ± 99
C#CCn1c(=O)c2c(nc(C#Cc3cccc(C)c3)n2C)n(CCCO)c1=O [drawing 534] |  |  |  | 47 ± 2 | 467 ± 6

SMILES | Ki [1, 5] [nM] | Ki [2] [nM] | Ki ([1]; no full inhibition curve due to limited water-solubility, read-out: A2A-adenosine receptor human recombinant [3H] MSX-2 Ki, calculated by extrapolation) [nM] | Ki [3] [nM] | Ki [4] [nM]
C#CCn1c(=O)c2c(nc(C#Cc3cccc(OCCO)c3)n2C)n(C)c1=O [drawing 469] |  |  |  | 117 ± 25 | ≥ 10000
C#CCn1c(=O)c2c(nc(C#Cc3ccc(OC)c(OC)c3)n2C)n(C)c1=O [drawing 601] | 89.7 ± 16.1 |  |  |  | 
C#CCn1c(=O)c2c(nc(C#Cc3ccc(OC)cc3)n2C)n(C)c1=O |  |  |  | 123 ± 38 | > 10000
C#CCn1c(=O)c2c(nc(C#Cc3ccc(OC)c(OC)c3)n2C)n(CCCC#N)c1=O [drawing 508] |  |  |  | 22.9 ± 7.6 | > 1000
C#CCn1c(=O)c2c(nc(C#Cc3ccc(OC)c(OC)c3)n2C)n(CCC2CO2)c1=O (centres unmarked) [drawing 505] |  |  |  | 19.2 ± 1.4 | 64 ± 5.4
C#CCn1c(=O)c2c(nc(C#Cc3ccc(C)cc3)n2C)n(C)c1=O |  |  |  | 151 ± 8.4 | > 10000
C#CCn1c(=O)c2c(nc(C#Cc3ccc(OC)c(OC)c3)n2C)n(CC(=O)O)c1=O |  |  |  | 272 ± 57 | > 1000
C#CCn1c(=O)c2c(nc(C#Cc3cccc(OC)c3)n2C)n(C)c1=O [drawing 456] |  |  |  | 30.9 ± 8 | > 10000
C#CCn1c(=O)c2c(nc(C#Cc3cccc(OC)c3)n2CC#C)n(C)c1=O [drawing 467] |  |  |  | 90 ± 35.7 | ≥ 10000
C#CCn1c(=O)c2c(nc(C#Cc3ccc(OC)c(OC)c3)n2C)n(CCC=C)c1=O |  |  |  | 34.9 ± 6.9 | 176 ± 59
C#CCn1c(=O)[nH]c2nc(C#Cc3ccc(OC)c(OC)c3)n(C)c2c1=O [drawing 483] |  |  |  | 15 ± 2 | ≥ 10000
C#CCn1c(=O)c2c(nc(C#Cc3cccc(OCCN(C)C)c3)n2C)n(C)c1=O [drawing 473] |  |  |  | 49 ± 5 | 194 ± 33
C#CCn1c(=O)c2c(nc(C#Cc3cccc(Cl)c3)n2C)n(C)c1=O [drawing 461] |  |  |  | 46 ± 9 | > 10000
C#CCn1c(=O)c2c(nc(C#Cc3ccc(OC)c(OC)c3)n2C)n(CC#N)c1=O [drawing 500] |  |  |  | 40 ± 0.6 | > 1000
C#CCn1c(=O)c2c(nc(C#Cc3cccc(OC)c3)n2CC#CC)n(C)c1=O |  |  |  | 36.2 ± 4.5 | 96 ± 16.4
C#CCn1c(=O)c2c(nc(C#Cc3ccc(OC)c(OC)c3)n2C)n(CCN(C)C)c1=O [drawing 489] |  |  |  | 54 ± 5 | 810 ± 145
C#CCn1c(=O)c2c(nc(C#Cc3cccc(F)c3)n2C)n(C)c1=O |  |  |  | 466 ± 36 | > 10000
C#CCn1c(=O)c2c(nc(C#Cc3ccc(OC)c(OC)c3)n2C)n(CC2CC2)c1=O [drawing 521] |  |  |  | 10.2 ± 4.2 | > 1000
C#CCn1c(=O)c2c(nc(C#Cc3ccc(OC)c(OC)c3)n2C)n(CCCOP(=O)(O)O)c1=O [drawing 494] |  |  |  | 37 ± 11 | 136 ± 19
C#CCn1c(=O)c2c(nc(C#Cc3ccc(OC)c(OC)c3)n2C)n(CC(=O)OC)c1=O [drawing 546] |  |  |  | 36.5 ± 6.1 | 286 ± 11
